Test results as given in US8969408B2, “Use of lignan-type compounds or extract of nutmeg or aril of nutmeg comprising the same” (Biocare Co., Ltd., priority 2007, dated 2015).

Assays:
Format in all cases: cell-based
[1] = tested on: tyrosinase-related protein 1 (TRP-1); assay: Inhibition of expression of TRP-1 (Western blotting), Melan-a cells; settings: result in words
Description: (§1) Western blotting and Bradford protein assay were carried out in order to investigate if the nutmeg ethanol extract prepared in Example 1-1 inhibits the expression of tyrosinase, tyrosinase-related protein 1 (TRP-1) and tyrosinase-related proteins 2 (TRP-2).
(§2) Specifically, proteins were extracted from the cells treated in Test Example 1-1 with the nutmeg ethanol extract and subjected to electrophoresis in 10% SDS-polyacrylamide gel. Then, the proteins were transferred from the gel to a nitrocellulose membrane. After treating with 5% skim milk at room temperature for 1 hour, primary antibodies of tyrosinase, TRP-1 and TRP-2 diluted in 5% skim milk to 1:1000 were added and allowed to be incubated at room temperature for 2 hours. After the incubation, the membrane was washed with Tris-buffer saline Tween 20(TBST) twice, for 10 minutes per each, while shaking. Secondary antibodies which recognize the primary antibodies, diluted in 5% skim milk to 1:1000, were added and allowed to be incubated at room temperature for 1 hour. As for the primary antibodies, the membrane was washed with TBST three times, for 10 minutes per each, while shaking, and subjected to development by chemiluminescence.
(§3) Melan-a cells were treated with the macelignan isolated in Example 2-1, and it was investigated if the expression of tyrosinase, TRP-1 and TRP-2 was inhibited, in the same manner as Test Example 3-1.

Melan-a cells = assay: Melanin production inhibition activity in Melan-a cells
Description: Specifically, Melan-a cells were placed on a 6-well plate (melanin quantitated) at a concentration of 2×10^5 cells/mL (final volume=3 mL) and cultured in a 10% CO2 incubator (MCO-20AIC, Sanyo) at 37° C., using RPMI 1640 containing 10% FBS and 2 μM TPA (phorbol-12-myristate 13-acetate), for 24 hours. After removing the culture medium, the nutmeg ethanol extract prepared in Example 1-1 was added to RPMI 1640 medium and treated every day for 3 days. 5 days later, the culture medium was removed from the 6-well plate and, after treating with 0.25% trypsin-EDTA solution (Sigma Chemical Co.), cell pellets were collected and transferred to a 1.5 mL tube. After centrifuging at 10,000 rpm for 10 minutes, the supernatant was removed. Thus obtained pellets were dried at 60° C. and added to 100 μL of 1N NaOH in order to dissolve melanin contained in the cells. The solution was diluted with PBS and absorbance was measured at 475 nm using an ELISA reader. Melanin content was calculated according to the following Equation 1. The group to which the nutmeg ethanol extract was not used served as the control group. [formula] […] Melan-a cells were treated with the […] isolated in Example 2-1, and the degree of melanin production was measured in the same manner as Test Example 1-1.

tyrosinase [2] = assay: Inhibition of expression of tyrosinase (Western blotting), Melan-a cells; settings: result in words
Description: as §1, §2, §3

[3] = tested on: tyrosinase-related proteins 2 (TRP-2); assay: Inhibition of expression of TRP-2 (Western blotting), Melan-a cells; settings: result in words
Description: as §1, §2, §3

tyrosinase [4] = target: T1, tyrosinase (Mus musculus, UniProt P11344); assay: Tyrosinase inhibition activity (DOPA chrome production) in treated Melan-a cells
T1 construct: endogenous in cells; host or cells: Melan-a cells (melanocytes)
T1 sequence (P11344 19-533): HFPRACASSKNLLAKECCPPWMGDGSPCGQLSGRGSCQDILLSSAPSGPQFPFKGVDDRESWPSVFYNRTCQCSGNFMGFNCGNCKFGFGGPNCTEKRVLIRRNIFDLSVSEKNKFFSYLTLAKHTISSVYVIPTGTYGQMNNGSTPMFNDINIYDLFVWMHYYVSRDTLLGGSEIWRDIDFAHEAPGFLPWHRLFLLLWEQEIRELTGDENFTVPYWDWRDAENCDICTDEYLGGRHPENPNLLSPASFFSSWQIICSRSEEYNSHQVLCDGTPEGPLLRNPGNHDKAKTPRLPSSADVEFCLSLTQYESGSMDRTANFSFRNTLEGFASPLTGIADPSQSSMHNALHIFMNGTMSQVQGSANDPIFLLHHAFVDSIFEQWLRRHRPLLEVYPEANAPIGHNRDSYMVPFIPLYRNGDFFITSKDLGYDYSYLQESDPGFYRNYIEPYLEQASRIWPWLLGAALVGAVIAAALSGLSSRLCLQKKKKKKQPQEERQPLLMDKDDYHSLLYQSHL
Description: 5 days later, the culture medium was removed from the 6-well plate and, after treating with 0.25% trypsin-EDTA solution (Sigma Chemical Co.), cell pellets were collected and transferred to a 1.5 mL tube. After adding 200 μL of phosphate buffer (pH 6.8) followed by centrifuging at 10,000 rpm for 10 minutes, the supernatant was collected. 150 μL of the supernatant was moved to a 96-well microplate and 50 μL of catechol was added. After culturing at 37° C. for 30 minutes, the amount of produced DOPA chrome was determined by measuring absorbance at 490 nm using a microplate reader.

Compound	expression of TRP-1 (FIG. 5, FIG. 6) [1]	melanin production inhibition activity (FIG. 1, FIG. 2) (Melan-a cells; result in words, P<0.01)	expression of tyrosinase (FIG. 5, FIG. 6) (tyrosinase [2])	expression of TRP-2 (FIG. 5, FIG. 6) [3]	DOPA chrome production / tyrosinase activity (FIG. 3, FIG. 4) (tyrosinase [4]; result in words, P<0.01)	inhibition at 50 µM (Melan-a cells; 50 μM)	DOPA chrome production inhibition (tyrosinase [4]; concentration not given)
COc1cc(C[C@H](C)[C@H](C)Cc2ccc3c(c2)OCO3)ccc1O [macelignan, 4-((2S,3R)-4-benzo[1,3]dioxol-5-yl-2,3-dimethyl-butyl)-2-methoxyphenol]	could inhibit the expression	superior melanin production inhibition activity	could inhibit the expression	could inhibit the expression	superior DOPA chrome production inhibition activity	–	–
C/C=C/c1cc(OC)c2c(c1)[C@@H](C)[C@H](c1ccc3c(c1)OCO3)O2 [licarin E, 5-(7-methoxy-3-methyl-5-propenyl-2,3-dihydro-benzofuran-2-yl)-benzo[1,3]dioxole]	–	–	–	–	–	~58.4%	about 60.04%
